# Results reported in US7381541B2, “Methods for producing animal feed preparations with astaxanthin-containing plants or parts of plants of the genus Tagetes” (SunGene GmbH & Co. KGaA, priority 2002, dated 2008).
# System: trout
# Experiment: Oral administration to trout in a standard trout feed: examination of bioavailability, pigmenting and performance parameters
# Format: in vivo
# Settings: 8 weeks
# Procedure: The trout feed comprising the inventive astaxanthin pigments is produced in accordance with Example IV and administered orally to trout (mean live mass 180 g). 3 concentrations are tested: 10, 20 and 40 mg of astaxanthin from the inventive astaxanthin pigmenting per kg of diet.
# The trout are raised as described hereinafter: • The trout are given as standard an adaptation phase of 14 days. • During the feeding experiment, 10 trout are kept per pool in constant-flow plastic tanks of volume 80 l of water. The water temperature is 15° C. The water is biologically purified and at least 10% of the total amount of water is replaced by fresh water per day. • The illumination period is 12 hours per day to avoid premature sexual maturation of the animals. • The number of pools per treatment is 3. This is equivalent to 30 trout per dose level. • The diets are stored at −20° C. to avoid astaxanthin losses. The feed is thawed by portions (weekly) and administered. • The experimental period is 8 weeks. […]
# The average feed consumption per fish, feed conversion and live mass gain are statistically evaluated.
# The pigmenting of the fish is measured by reflectance spectrophotometric measurements (Minolta a value =red value at the fillet incision) and by determining the astaxanthin content (mg/kg) in the fillet in each case compared with the negative control.
structure (smiles),measurement,value
"CC1=C(/C=C/C(C)=C/C=C/C(C)=C/C=C/C=C(C)/C=C/C=C(C)/C=C/C2=C(C)C(=O)[C@@H](O)CC2(C)C)C(C)(C)C[C@H](O)C1=O [synthetic astaxanthin, astaxanthin]","performance parameters (feed intake, feed utilization, live mass gain): differences between or within treatments",no statistically secured differences
